Test results reported in article PMC11188305, “Reproductive and fetal toxicity studies of histamine H3 receptor antagonist DL76 used in mice to prevent maximal electroshock-induced seizure” (Frontiers in Pharmacology, 2024).
Read-outs that look alike come from different tables or passages of the source.

What was measured:
[1] = target: T1, hH1R (Homo sapiens, UniProt P35367); assay: hH1R radioligand binding, [3H]pyrilamine in CHO K1 cells; conditions: protocol of Lazewska et al., 2017
T1 construct: expressed in transfected cells; host or cells: CHO K1 cells
T1 sequence (P35367 whole entry): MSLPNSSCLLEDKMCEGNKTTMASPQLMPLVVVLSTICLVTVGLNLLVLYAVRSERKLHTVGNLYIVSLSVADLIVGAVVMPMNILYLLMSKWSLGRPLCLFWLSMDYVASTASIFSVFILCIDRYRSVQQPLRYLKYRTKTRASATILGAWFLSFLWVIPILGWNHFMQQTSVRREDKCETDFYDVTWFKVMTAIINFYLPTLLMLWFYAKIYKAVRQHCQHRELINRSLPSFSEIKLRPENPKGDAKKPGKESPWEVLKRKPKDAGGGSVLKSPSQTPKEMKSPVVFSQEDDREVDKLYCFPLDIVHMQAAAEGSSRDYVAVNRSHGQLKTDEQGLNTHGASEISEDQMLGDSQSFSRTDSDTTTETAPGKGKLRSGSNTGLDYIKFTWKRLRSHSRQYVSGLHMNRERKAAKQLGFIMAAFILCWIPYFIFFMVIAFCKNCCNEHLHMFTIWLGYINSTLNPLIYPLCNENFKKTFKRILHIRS

[2] = tested on: C57/B6 mouse embryos; assay: Skeletal malformations (double staining of fetuses); assay type: in vivo, C57BL/6J mice
Text: After isolating fetuses from viscera and skin, they underwent a fat-removal process by immersion in acetone for 1–3 days. The resulting transparent specimens underwent a sequence of glycerin solutions (50% and 80%) before being finally stored in 100% glycerin for observation of malformations using a stereo dissecting microscope ([McLeod, 1980]; [Sterz and Lehmann, 1985]; [Abdulrazzaq et al., 1997]; [Bass et al., 2020]). Following this, specimens were processed and stained with Alizarin Red-S and Alcian blue ([McLeod, 1980]; [Sterz and Lehmann, 1985]; [Abdulrazzaq et al., 1997]; [Bass et al., 2020]) to identify bone and cartilage deformities.
(§1) Statistical analyses employed SPSS 26.0 (IBM Middle East, Dubai, UAE). Data were presented as means ± SEM. […] Fetal abnormality data were presented as counts and percentages. Fisher’s exact test compared the percentages of abnormalities between the control group (saline) and the different dose groups. All tests were two-tailed, and significance was set at p < 0.05.

[3] = target: adrenergic α2 receptor; assay: adrenergic α2 receptor binding, [3H]clonidine in rat cerebral cortex; conditions: protocol of Canale et al., 2021
[4] = target: T2, hN neuronal α4β2 (Homo sapiens, UniProt P17787+P43681); assay: hN neuronal α4β2 binding, [3H]cystine in SH-SY5Y cells (Eurofins Cerep)
T2 construct: host or cells: SH-SY5Y cells
T2 sequence (P43681 29-627 limits assumed): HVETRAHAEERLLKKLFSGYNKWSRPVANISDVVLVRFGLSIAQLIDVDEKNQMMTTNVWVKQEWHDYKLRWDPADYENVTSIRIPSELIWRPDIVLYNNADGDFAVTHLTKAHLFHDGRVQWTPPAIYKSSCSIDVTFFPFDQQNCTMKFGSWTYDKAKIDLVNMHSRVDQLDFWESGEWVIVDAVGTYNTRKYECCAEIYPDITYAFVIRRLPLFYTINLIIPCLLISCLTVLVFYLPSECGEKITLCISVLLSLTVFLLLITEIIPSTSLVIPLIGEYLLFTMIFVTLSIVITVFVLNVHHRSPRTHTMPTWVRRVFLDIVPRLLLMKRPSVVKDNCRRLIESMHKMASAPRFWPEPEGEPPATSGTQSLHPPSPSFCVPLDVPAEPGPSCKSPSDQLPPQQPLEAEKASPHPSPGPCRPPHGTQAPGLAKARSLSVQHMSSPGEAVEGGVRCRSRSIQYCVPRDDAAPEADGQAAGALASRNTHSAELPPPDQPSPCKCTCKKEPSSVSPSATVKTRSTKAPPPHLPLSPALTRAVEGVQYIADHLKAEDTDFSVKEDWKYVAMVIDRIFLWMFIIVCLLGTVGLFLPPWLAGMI
T2 sequence (P17787 26-502): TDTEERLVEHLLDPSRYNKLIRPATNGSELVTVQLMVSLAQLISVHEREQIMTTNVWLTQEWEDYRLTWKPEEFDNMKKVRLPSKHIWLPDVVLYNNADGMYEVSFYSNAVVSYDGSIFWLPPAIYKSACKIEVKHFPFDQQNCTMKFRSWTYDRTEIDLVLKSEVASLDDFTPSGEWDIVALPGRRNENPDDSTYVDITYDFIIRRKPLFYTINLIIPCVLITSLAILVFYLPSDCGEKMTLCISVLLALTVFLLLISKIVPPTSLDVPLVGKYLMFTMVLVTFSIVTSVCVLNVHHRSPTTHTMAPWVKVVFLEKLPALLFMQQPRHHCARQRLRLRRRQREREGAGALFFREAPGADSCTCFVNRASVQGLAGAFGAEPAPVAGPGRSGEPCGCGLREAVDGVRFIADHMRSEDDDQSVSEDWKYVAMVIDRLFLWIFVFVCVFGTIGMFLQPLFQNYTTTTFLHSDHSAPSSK

[5] = parameters: method as in Szafarz et al., 2015; conditions: ref Szafarz et al., 2015, cited from earlier work
[6] = target: hH4R; parameters: method as in Lazewska et al. (2020) and Canale et al. (2021); conditions: Sf9 cells; [3H]histamine; ref Lazewska et al. (2020) and Canale et al. (2021); cited from earlier work
[7] = tested on: H3R; parameters: method as in Lazewska et al. (2006); conditions: after p.o. administration to mice; ref Lazewska et al. (2006); cited from earlier work
[8] = tested on: several cell lines; parameters: method as in Canale et al., 2021; conditions: ref Canale et al., 2021; cited from earlier work
[9] = target: T3, hH2R (Homo sapiens, UniProt P25021); assay: hH2R radioligand binding, [125I]APT in CHO cells (Eurofins Cerep)
T3 construct: host or cells: CHO cells
T3 sequence (P25021 whole entry): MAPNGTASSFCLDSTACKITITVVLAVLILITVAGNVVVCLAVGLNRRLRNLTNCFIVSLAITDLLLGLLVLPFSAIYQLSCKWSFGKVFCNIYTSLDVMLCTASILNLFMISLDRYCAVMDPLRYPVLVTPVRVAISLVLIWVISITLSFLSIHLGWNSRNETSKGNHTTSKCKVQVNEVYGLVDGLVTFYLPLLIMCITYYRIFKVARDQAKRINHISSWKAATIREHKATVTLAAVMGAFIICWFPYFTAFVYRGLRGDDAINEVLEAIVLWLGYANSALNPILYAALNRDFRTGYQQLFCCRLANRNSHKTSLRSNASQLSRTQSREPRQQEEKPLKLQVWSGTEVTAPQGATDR

[10] = parameters: method as in Canale et al., 2021; conditions: ref Canale et al., 2021; cited from earlier work
[11] = target: hH3R; parameters: method as in Lazewska et al. (2006); conditions: CHO K1 cells; [125I]Iodoproxyfan binding assay; ref Lazewska et al. (2006); cited from earlier work
[12] = tested on: MES-induced seizures in mice; assay: Maximal electroshock (MES)-induced seizure, duration of tonic hind limb extension (THLE); assay type: in vivo, C57BL/6J mice; conditions: for protection compared with reference drug VPA: DL76 60 mg/kg i.p. vs VPA 300 mg/kg; for mean difference in THLE: DL76 60 mg/kg vs saline-, DL76 7.5, 15, 30 mg/kg groups, p < 0.05
Text: As previously described and with a slight modification in the intensity applied, seizures were elicited in mice with a 50-Hz alternating current of 120 mA intensity ([Kaminski et al., 2015]; [Song et al., 2020]; [Xiao et al., 2021]; [Hua et al., 2023]). The current was applied through ear electrodes for 0.2 s. Protection against the spread of MES-induced convulsion was defined as the abolition of the tonic hind limb extension (THLE) component of the seizure ([Kaminski et al., 2015]; [Song et al., 2020]; [Xiao et al., 2021]; [Hua et al., 2023]). The animals were divided into the following experimental groups, with eight mice in each: the control group injected with saline, the positive control group injected with 300 mg/kg of VPA (the minimal dose of VPA that protected animals against the spread of MES-induced convulsions without mortality in mice) ([Sadek et al., 2015]; [Bastaki et al., 2018]), and four groups that were administered the test compound DL76 at doses of 7.5 mg/kg, 15 mg/kg, 30 mg/kg, or 60 mg/kg. All drugs were administered 30–45 min before the MES challenge. In a further group of eight mice, the most promising and protective dose of DL76 (60 mg/kg, i.p.) was co-injected with RAM (10 mg/kg, i.p.), 30 min apart and 15 min prior to the MES test. Protection against the spread of MES-induced convulsion was defined as the abolition of the THLE component of the convulsion ([Sadek et al., 2015]; [Alachkar et al., 2018]; [Bastaki et al., 2018]).
as §1

CC(C)(C)c1ccc(OCCCN2CCCCC2)cc1 [DL76, 1-(3-(4-tert-butyl-phenoxy)propyl) piperidine]
Ki [1]: 849 ± 67 nM
femur length ([2]; 7.5 mg/kg and 60 mg/kg groups): significantly decreased
tibia and fibula lengths vs controls ([2]; 7.5 mg/kg, 30 mg/kg and 60 mg/kg groups): significantly decreased
mean crown-to-rump length vs control groups ([2]; 7.5 mg/kg-, 30 mg/kg- and 60 mg/kg-treated groups): decreased significantly
humerus and ulna lengths ([2]; 30 mg/kg and 60 mg/kg groups): reduced
radius length ([2]; 30 mg/kg group only): significant decrease
femur length ([2]; 30 mg/kg group, p = 0.06): non-significant decrease
incidence of lumbar ribs vs saline-treated control ([2]; DL76-treated group): not significantly different
fifth sternebrium, absence or occurrence of hypoplasia, vs control ([2]; DL76-treated groups): no significant difference
skull or facial bones ([2]; all groups): No significant differences
vertebrae: number of centra or number of unossified/hypoplastic bodies ([2]; all the DL-76-treated groups): no differences
crown–rump length and lengths of the long bones of the extremities ([2]; higher doses of 30 mg/kg, 60 mg/kg and 15 mg/kg × 3): seemed to be affected
Ki [3]: > 5 µM
inhibition at 1 µM [4]: 3%
AUC0→∞ ([5]; dose 3 mg/kg): 298 ng◦h/mL
C0 ([5]; dose 3 mg/kg): 564 ng/mL
AUC0→∞ ([5]; dose 6 mg/kg): 685 ng◦h/mL
C0 ([5]; dose 6 mg/kg): 653 ng/mL
concentrations in cortex, hippocampus and striatum higher than in whole brain tissues ([5]; experimental animals): 44%
Ki [6]: 66 µM
ED50, in vivo H3R antagonist potency [7]: 2.8 ± 0.4 mg/kg
in vitro toxicity [8]: without inducing in vitro toxicity
inhibition at 1 µM [9]: 2.8%
antiparkinsonian effects [10]: antiparkinsonian effects
Ki [11]: 22 nM
difference of protective effects between male and female mice ([12]; DL76 7.5, 15, 30 and 60 mg/kg i.p., p = 0.70, 0.685, 0.151, 0.398): no significant differences
THLE compared with reference drug VPA (300 mg/kg, i.p.) ([12]; both sexes of adult mice, DL76 30 mg/kg and 60 mg/kg): no significant differences
THLE values compared with VPA ([12]; both sexes of adult mice, lower doses of DL76 7.5 mg/kg and 15 mg/kg i.p.): significant difference
mean difference, saline + saline vs. DL76 + RAM ([12]; female adult mice, DL76 60 mg/kg + RAM 10 mg/kg i.p., p = 0.17): 1.33
protection after co-administration of RAM ([12]; female adult mice, DL76 60 mg/kg i.p. + RAM 10 mg/kg i.p. 15 min before MES): abrogated
protection compared with reference drug VPA ([12]; female adult mice, p = 0.72): comparable
mean difference in THLE ([12]; female adult mice, 2nd of three printed values): 10.63 s
mean difference in THLE ([12]; female adult mice, 3rd of three printed values): 3.13 s
protection against MES-induced convulsions ([12]; female adult mice, DL76 7.5–60 mg/kg i.p.): significantly protected
protection against MES-induced seizures ([12]; female and male mice, 7.5, 15, 30 and 60 mg/kg i.p., acute): significant and dose-dependent protection
mean difference of THLE, saline vs. DL76+RAM ([12]; male adult mice, DL76 60 mg/kg + RAM 10 mg/kg i.p., p = 0.094): 2.5 s
protection after co-injection with H3R agonist RAM ([12]; male adult mice, DL76 60 mg/kg i.p. + RAM 10 mg/kg i.p. 15 min before MES): reversed
mean difference of THLE ([12]; male adult mice, DL76 60 mg/kg i.p. vs DL76 (7.5 mg/kg)-treated group): 7.25 s
mean difference of THLE ([12]; male adult mice, DL76 60 mg/kg i.p. vs DL76 (15 mg/kg)-treated group): 8.88 s
mean difference of THLE ([12]; male adult mice, DL76 60 mg/kg i.p. vs DL76 (30 mg/kg)-treated group): 10.75 s
protection compared with reference drug VPA ([12]; male adult mice, p = 1.000): comparable
protective effect on MES-induced convulsions vs saline ([12]; male adult mice, all doses 7.5, 15, 30, 60 mg/kg i.p., all p <0.0001): substantial protective effects
